What was measured:
GSK-3α = GSK-3α (Homo sapiens, UniProt P49840); assay: GSK-3 kinase assay (C1), GSK-3α; type: biochemical; conditions: 1 μM ATP, read-out: C1 Score α
Outline: (§1)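 Radiometric SPA at room temperature in 25 mM Tris pH 7.4 with 10 mM MgCl2, 1 mM DTT, 5.7 ng/μl GSK-3β or 0.25 ng/μl GSK-3α, 5 μM biotinylated CREB peptide and 1 μM ATP plus ^33P-ATP. Stopped after 1 h; IC50 from dose-response versus no-compound control, reported as pIC50 score bands.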

Chang cells = assay: GSK-3 cellular assay (C2): 14C-D-glucose incorporation into glycogen; type: cell-based; conditions: increase in D-glucose incorporation into glycogen, test concentration of 10^−6 M
Method: Test compounds were tested for their ability to increase the incorporation of ^14C-D-glucose into glycogen in living cells. To do this, Chang cells (360,000 cells/well) were cultured in 0.5 ml of MEM Rega 3 medium supplemented with 10% fetal calf serum, 1% L-glutamine and 2% sodium carbonate. After 3 days, cells were washed with 0.5 ml of phosphate-buffered saline and overlayed with 1 ml of serum- and glucose-free DMEM medium. Then, 2 μl of compound in DMSO and 50 μl substrate (3 mM glucose and 0.5 μCi ^14C-D-glucose were added and the cultures were incubated for 90 min. Cells were then extracted with 0.5 ml of 20% KOH for 60 min at 37° C. and the cell lysates were transferred to 10 ml tubes containing 300 μl of 1 mg/ml glycogen as […]. Following the addition of 2 ml ethanol, total glycogen was precipitated overnight at −20° C. and the precipitates were recovered by centrifugation. Precipitates were then resuspended in 1 ml of water and transferred to scintillation counter vials. and the amount of ^14C-D-glucose incorporation into glycogen was measured by scintillation counting. Scores for the compounds according to the invention, were obtained at a test concentration of 10^−6 M. Score 1=10-30% increase, Score 2=30-60% increase, Score 3=60-80% increase and Score 4=>80% increase in D-glucose incorporation.

GSK-3β = GSK-3β (Homo sapiens, UniProt P49841); assay: GSK-3 kinase assay (C1), GSK-3β; type: biochemical; conditions: 1 μM ATP, read-out: C1 Score β
Outline: as §1

CDK2/cyclinE (h) = CDK2/cyclinE (h) (Homo sapiens, UniProt P24941); assay: Kinase profiling C3.4 CDK2/cyclinE human; type: biochemical; conditions: test concentration of 10^−6 M
Outline: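 Radiometric filter-binding assay: 5-10 mU enzyme with 0.1 mg/ml histone H1 in 8 mM MOPS pH 7.0, 0.2 mM EDTA, 10 mM Mg acetate and [γ-33P]ATP. Incubated 40 min at room temperature, stopped with phosphoric acid. Substrate-bound 33P counted on P30 filtermat.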

CDK7/cyclinH/MAT1 (h) = CDK7/cyclinH/MAT1 (h) (Homo sapiens, UniProt P50613); assay: Kinase profiling C3.8 CDK7/cyclinH/MAT1 human; type: biochemical; conditions: CDK7/cyclinH/MAT1, test concentration of 10^−6 M
Outline: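 Human CDK7/cyclinH/MAT1 (5-10 mU) incubated 40 min at room temperature in 8 mM MOPS pH 7.0, 0.2 mM EDTA, 10 mM Mg acetate, 500 μM peptide substrate and [γ-^33P]ATP. Stopped with phosphoric acid; substrate phosphorylation measured by filter binding and scintillation counting.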

CDK2/cyclinA (h) = CDK2/cyclinA (h) (Homo sapiens, UniProt P24941); assay: Kinase profiling C3.3 CDK2/cyclinA human; type: biochemical; conditions: test concentration of 10^−6 M
Outline: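 Human CDK2/cyclinA (5-10 mU) phosphorylates 0.1 mg/ml histone H1 in 8 mM MOPS pH 7.0, EDTA, 10 mM Mg acetate with [γ-33P]ATP, 40 min at room temperature. After phosphoric acid stop, filter-bound 33P counted by scintillation.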

CDK3/cyclinE (h) = CDK3/cyclinE (h) (Homo sapiens, UniProt Q00526); assay: Kinase profiling C3.5 CDK3/cyclinE human; type: biochemical; conditions: test concentration of 10^−6 M
Outline: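 Human CDK3/cyclinE (5-10 mU) phosphorylated 0.1 mg/ml histone H1 in 8 mM MOPS pH 7.0, 0.2 mM EDTA and 10 mM MgAcetate with [γ-33P]ATP. Reaction ran 40 min at room temperature and was stopped with phosphoric acid. Substrate-bound radioactivity was captured on P30 filtermat and measured by scintillation counting.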

CDK1/cyclinB (h) = CDK1/cyclinB (h) (Homo sapiens, UniProt P06493); assay: Kinase profiling C3.2 CDK1/cyclinB human; type: biochemical; conditions: test concentration of 10^−6 M
Outline: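 Radiometric filter-binding assay: human CDK1/cyclinB (5-10 mU) with 0.1 mg/ml histone H1 substrate and [γ-33P]ATP in 8 mM MOPS pH 7.0, 10 mM Mg acetate, 40 min at room temperature. Stopped with phosphoric acid; substrate-bound 33P counted on P30 filtermat by scintillation.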

CDK5/p35 human = CDK5/p35 human (Homo sapiens, UniProt Q00535); assay: Kinase profiling C3.6 CDK5/p35 human; type: biochemical; conditions: CDK5/p35, test concentration of 10^−6 M
Outline: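 Radiometric filter-binding assay: human CDK5/p35 (5-10 mU) with 0.1 mg/ml histone H1 substrate in 8 mM MOPS pH 7.0, 0.2 mM EDTA, 10 mM Mg acetate and [γ-33P]ATP. Incubated 40 min at room temperature, stopped with phosphoric acid. Substrate 33P incorporation counted on P30 filtermat by scintillation.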

cSRC (h) = cSRC (h) (Homo sapiens, UniProt P12931); assay: Kinase profiling C3.9 cSRC human; type: biochemical; conditions: test concentration of 10^−6 M
Method: (§2) The in vitro inhibition of a panel of kinases was assessed using either the glass-fiber filter technology as described by Davies, S. P. et al., Biochem J. (2000), 351; p. 95-105. In the glass-fiber filter technology the activity of the kinase of interest is measured using an appropriate substrate that is incubated with the aforementioned kinase protein in the presence of (^33P) radiolabeled ATP. (^33P) Phosporylation of the substrate is subsequently measured as radioactivity bound on a glassfiber-filter.
(§3) All kinases are pre-diluted to a 10× working concentration prior to addition into the assay. The composition of the dilution buffer for each kinase is detailed below.
(§4) All substrates are dissolved and diluted to working stocks in de-ionised water, apart from histone H1 that is stored in 10× working stock in 20 mM MOPS pH 7.4.
(§5) In a final reaction volume of 25 μl, cSRC (h) (5-10 mU) is incubated with 8 mM MOPS pH 7.0, 0.2 mM EDTA, 250 μM KVEKIGEGTYGVVYK (Cdc2 peptide), 10 mM MgAcetate and [γ-^33P-ATP] (specific activity approx. 500 cpm/pmol, concentration as required). The reaction is initiated by the addition of the MgATP mix. After incubation for 40 minutes at room temperature, the reaction is stopped by the addition of 5 μl of a 3% phosphoric acid solution.
10 μl of the reaction is then spotted onto a P30 filtermat and washed three times for 5 minutes in 75 mM phosphoric acid and once in methanol prior to drying and scintillation counting.

Yes (h) = Yes (h) (Homo sapiens, UniProt P07947); assay: Kinase profiling C3.10 Yes human; type: biochemical; conditions: test concentration of 10^−6 M
Method: as §2, §3, §4
as §5, with “Yes” for “cSRC”, “0.1 mg/ml poly(Glu, Tyr) 4:1,” for “250 μM KVEKIGEGTYGVVYK (Cdc2 peptide),”, “solution. 10 μl of the reaction is then spotted onto a Filtermat A and washed three times for 5 minutes in 75 mM phosphoric acid and once in methanol prior to drying and scintillation counting.” for “solution.”

Aurora-A (h) = molecular target: T1, Aurora-A (h) (Homo sapiens, UniProt O14965); assay: Kinase profiling C3.1 Aurora-A human; type: biochemical; conditions: test concentration of 10^−6 M
T1 sequence (O14965 1-403): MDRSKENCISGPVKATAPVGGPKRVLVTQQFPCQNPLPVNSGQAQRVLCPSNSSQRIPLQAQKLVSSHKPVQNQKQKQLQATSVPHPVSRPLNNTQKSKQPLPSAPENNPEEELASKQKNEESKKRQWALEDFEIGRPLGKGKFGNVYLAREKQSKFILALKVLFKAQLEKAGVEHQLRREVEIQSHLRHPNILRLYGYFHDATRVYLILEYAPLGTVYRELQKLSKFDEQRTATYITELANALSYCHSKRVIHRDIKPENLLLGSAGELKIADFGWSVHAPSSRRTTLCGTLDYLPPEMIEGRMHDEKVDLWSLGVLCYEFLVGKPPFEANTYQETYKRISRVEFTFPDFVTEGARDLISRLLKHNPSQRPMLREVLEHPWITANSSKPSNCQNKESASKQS
Method: as §2, §3, §4
as §5, with “Aurora-A” for “cSRC”, “200” for “250”, “LRRASLG (Kemptide),” for “KVEKIGEGTYGVVYK (Cdc2 peptide),”, “solution. 10 μl of the reaction is then spotted onto a P30 filtermat and washed three times for 5 minutes in 50 mM phosphoric acid and once in methanol prior to drying and scintillation counting.” for “solution.”

Sequence of GSK-3α (P49840 whole entry, species assumed): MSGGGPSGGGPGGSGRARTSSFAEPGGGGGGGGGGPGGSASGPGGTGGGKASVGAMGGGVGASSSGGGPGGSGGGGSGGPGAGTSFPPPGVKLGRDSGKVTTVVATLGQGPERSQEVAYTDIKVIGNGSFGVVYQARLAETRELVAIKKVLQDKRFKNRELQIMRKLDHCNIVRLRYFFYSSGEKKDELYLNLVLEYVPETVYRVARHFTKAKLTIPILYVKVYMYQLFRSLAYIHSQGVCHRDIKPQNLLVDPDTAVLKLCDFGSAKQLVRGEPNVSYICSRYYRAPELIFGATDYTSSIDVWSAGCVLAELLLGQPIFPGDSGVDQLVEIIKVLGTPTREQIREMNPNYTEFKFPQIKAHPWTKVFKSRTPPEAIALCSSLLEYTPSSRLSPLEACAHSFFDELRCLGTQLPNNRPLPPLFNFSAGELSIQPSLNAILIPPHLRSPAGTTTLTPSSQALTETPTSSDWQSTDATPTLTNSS
Sequence of CDK7/cyclinH/MAT1 (h) (P50613 whole entry): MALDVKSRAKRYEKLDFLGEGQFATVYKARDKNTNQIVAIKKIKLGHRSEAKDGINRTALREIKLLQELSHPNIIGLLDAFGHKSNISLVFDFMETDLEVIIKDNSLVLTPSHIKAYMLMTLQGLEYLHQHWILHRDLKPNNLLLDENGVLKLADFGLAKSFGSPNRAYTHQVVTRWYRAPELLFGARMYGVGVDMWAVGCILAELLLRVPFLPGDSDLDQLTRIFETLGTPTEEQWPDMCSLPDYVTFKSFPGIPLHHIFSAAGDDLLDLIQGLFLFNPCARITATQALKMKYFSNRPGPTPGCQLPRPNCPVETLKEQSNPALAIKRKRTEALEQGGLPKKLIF
Sequence of CDK7/cyclinH/MAT1 (h) (P51946 whole entry partner): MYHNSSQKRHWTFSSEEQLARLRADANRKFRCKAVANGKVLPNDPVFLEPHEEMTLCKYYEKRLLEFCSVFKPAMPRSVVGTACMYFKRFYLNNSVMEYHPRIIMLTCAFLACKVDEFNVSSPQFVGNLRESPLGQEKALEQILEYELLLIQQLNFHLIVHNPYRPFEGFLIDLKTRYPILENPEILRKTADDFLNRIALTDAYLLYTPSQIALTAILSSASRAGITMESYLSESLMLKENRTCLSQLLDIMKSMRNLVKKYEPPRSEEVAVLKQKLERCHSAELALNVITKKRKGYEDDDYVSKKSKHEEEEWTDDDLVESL
Sequence of CDK7/cyclinH/MAT1 (h) (P51948 whole entry partner): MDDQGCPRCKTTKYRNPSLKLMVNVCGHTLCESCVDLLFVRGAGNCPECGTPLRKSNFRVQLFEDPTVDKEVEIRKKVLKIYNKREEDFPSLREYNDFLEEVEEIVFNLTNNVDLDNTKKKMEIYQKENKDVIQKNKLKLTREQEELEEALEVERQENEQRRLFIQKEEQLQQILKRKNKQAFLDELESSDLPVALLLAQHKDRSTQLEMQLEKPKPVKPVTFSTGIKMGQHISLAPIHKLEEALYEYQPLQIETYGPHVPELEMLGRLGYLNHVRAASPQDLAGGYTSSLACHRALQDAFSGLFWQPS
Sequence of CDK1/cyclinB (h) (P06493 whole entry): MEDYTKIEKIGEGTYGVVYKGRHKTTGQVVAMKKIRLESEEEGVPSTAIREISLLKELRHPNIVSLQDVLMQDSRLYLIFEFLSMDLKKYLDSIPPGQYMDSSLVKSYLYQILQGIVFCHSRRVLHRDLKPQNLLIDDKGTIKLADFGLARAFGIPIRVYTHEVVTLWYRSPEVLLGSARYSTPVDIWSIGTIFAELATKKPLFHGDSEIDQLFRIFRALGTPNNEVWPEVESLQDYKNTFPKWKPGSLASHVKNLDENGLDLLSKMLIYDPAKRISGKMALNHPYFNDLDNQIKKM
Sequence of CDK1/cyclinB (h) (P14635 whole entry partner): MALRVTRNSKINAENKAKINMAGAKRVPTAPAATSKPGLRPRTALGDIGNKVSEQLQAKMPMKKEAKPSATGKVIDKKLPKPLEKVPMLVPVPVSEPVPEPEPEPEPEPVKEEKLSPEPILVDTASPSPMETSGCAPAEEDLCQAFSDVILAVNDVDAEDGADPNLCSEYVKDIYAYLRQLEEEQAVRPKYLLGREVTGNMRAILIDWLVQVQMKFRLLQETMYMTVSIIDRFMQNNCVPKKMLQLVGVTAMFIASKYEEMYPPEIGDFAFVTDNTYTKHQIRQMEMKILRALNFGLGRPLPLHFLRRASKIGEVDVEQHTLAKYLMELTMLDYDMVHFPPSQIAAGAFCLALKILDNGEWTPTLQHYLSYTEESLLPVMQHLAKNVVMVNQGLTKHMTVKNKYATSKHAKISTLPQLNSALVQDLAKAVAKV
Sequence of GSK-3β (P49841 whole entry, species assumed): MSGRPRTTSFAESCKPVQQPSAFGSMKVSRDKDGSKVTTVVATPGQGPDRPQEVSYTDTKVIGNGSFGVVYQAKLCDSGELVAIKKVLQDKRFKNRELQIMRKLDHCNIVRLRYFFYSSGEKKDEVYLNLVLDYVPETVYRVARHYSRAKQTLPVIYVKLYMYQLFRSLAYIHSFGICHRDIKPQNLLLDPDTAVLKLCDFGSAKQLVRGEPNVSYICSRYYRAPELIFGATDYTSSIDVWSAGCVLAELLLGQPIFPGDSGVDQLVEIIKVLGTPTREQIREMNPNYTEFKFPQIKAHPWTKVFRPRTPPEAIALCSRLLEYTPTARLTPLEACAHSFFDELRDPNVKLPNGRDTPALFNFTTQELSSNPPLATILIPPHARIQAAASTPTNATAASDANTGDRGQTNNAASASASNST
Sequence of CDK5/p35 human (Q00535 whole entry): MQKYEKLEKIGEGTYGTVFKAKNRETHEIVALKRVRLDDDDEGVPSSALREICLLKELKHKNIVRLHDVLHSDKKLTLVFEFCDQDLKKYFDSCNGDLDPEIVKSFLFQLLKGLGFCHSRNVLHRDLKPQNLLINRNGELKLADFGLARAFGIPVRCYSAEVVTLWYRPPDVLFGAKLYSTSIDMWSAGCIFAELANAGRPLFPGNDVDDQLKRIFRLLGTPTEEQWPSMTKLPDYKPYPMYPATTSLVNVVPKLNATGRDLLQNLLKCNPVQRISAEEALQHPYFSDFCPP
Sequence of CDK5/p35 human (Q15078 whole entry partner): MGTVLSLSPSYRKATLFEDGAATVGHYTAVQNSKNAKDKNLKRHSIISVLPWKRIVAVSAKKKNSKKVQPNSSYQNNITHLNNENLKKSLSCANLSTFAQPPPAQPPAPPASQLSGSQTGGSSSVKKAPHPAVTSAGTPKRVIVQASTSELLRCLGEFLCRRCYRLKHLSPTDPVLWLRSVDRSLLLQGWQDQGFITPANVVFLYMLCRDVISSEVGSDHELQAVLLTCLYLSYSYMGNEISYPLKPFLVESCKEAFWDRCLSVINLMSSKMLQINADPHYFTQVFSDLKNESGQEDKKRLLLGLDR
Sequence of cSRC (h) (P12931 whole entry): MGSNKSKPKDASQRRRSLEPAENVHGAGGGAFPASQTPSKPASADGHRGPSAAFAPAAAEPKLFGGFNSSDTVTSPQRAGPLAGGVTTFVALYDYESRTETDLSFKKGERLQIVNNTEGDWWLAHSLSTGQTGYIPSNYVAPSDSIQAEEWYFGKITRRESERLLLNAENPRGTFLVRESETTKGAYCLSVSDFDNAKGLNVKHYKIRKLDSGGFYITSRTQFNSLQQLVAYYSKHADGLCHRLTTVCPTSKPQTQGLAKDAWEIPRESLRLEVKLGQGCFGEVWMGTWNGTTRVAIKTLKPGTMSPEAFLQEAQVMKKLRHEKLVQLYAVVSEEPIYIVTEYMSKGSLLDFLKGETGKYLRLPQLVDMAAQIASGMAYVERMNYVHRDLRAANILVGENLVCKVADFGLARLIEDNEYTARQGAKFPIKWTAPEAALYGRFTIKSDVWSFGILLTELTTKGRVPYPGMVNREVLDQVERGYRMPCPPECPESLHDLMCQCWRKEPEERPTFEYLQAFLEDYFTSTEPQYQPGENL
Sequence of Yes (h) (P07947 whole entry): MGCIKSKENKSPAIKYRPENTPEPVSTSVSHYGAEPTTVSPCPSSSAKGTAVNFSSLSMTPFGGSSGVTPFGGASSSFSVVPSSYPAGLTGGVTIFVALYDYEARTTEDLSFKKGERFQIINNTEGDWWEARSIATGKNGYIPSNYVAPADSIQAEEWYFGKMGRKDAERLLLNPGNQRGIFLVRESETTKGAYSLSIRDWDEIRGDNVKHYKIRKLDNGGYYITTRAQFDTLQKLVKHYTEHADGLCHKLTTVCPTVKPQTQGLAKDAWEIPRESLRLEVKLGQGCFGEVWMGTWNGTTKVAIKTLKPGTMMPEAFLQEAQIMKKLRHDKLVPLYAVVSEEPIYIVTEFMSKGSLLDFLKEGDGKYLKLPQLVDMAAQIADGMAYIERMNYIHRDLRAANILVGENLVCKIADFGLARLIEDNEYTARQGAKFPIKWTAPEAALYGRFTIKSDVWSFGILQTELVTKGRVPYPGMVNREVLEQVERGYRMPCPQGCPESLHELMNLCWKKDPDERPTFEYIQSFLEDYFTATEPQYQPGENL

IC50 (GSK-3α) | IC50 (GSK-3β) | C3.4 score (CDK2/cyclinE (h)) | C3.8 score (CDK7/cyclinH/MAT1 (h)) | C3.3 score (CDK2/cyclinA (h)) | C3.5 score (CDK3/cyclinE (h)) | C3.2 score (CDK1/cyclinB (h)) | C3.6 score (CDK5/p35 human) | C3.9 score (cSRC (h)) | C3.10 score (Yes (h)) | C3.1 score (Aurora-A (h)) | Structure (SMILES) | C2 Score (Chang cells)
10 to 100 nM | 10 to 100 nM | – | – | – | – | – | – | – | – | – | CN1CC(=O)NCCCNc2cc(ccn2)-c2ncnc(n2)Nc2cccc(c2)C1 [Compound 5] | 4 (Score 4=>80% increase in D-glucose incorporation)
< 10 nM | – | 4 (Score 4 = >80% inhibition) | 1 (Score 1 = 10-30% inhibition) | 4 (Score 4 = >80% inhibition) | 2 (Score 2 = 30-60% inhibition) | 4 (Score 4 = >80% inhibition) | 3 (Score 3 = 60-80% inhibition) | – | – | – | O=C1CN2CCN(CC2)Cc2cccc(c2)Nc2ncnc(n2)-c2cccc(c2)CCCN1 [Compound 52] | 4 (Score 4=>80% increase in D-glucose incorporation)
10 to 100 nM | – | – | – | 2 (Score 2 = 30-60% inhibition) | – | – | – | 2 (Score 2 = 30-60% inhibition) | 2 (Score 2 = 30-60% inhibition) | 2 (Score 2 = 30-60% inhibition) | O=C1CNCc2cccc(c2)Nc2ncnc(n2)-c2cncc(c2)CCCN1 [Compound 83] | 4 (Score 4=>80% increase in D-glucose incorporation)
< 10 nM | – | 3 (Score 3 = 60-80% inhibition) | 1 (Score 1 = 10-30% inhibition) | 2 (Score 2 = 30-60% inhibition) | 2 (Score 2 = 30-60% inhibition) | 3 (Score 3 = 60-80% inhibition) | 2 (Score 2 = 30-60% inhibition) | – | – | – | O=C1CN2CCN(CC2)Cc2cccc(c2)Nc2ncnc(n2)-c2cncc(c2)CCCN1 [Compound 84] | 3 (Score 3=60-80% increase)
10 to 100 nM | 10 to 100 nM | – | – | – | – | – | – | – | – | – | CN1CC(=O)NCCNc2cc(ccn2)-c2ncnc(n2)Nc2cccc(c2)C1 [Compound 4] | 4 (Score 4=>80% increase in D-glucose incorporation)

Reference: patent US8778919B2, “Cyclic anilino—pyridinotriazines” (Janssen Pharmaceutica NV, priority 2005, dated 2014)
